Data on one compound can be found in BindingDB's records for PubMed 32092586 (Zhengzhou University, 2020).

This test has as its target Ubiquitin carboxyl-terminal hydrolase 7 (Homo sapiens, UniProt Q93009). The test is described as follows: Inhibition of human USP7 using Ub-AMC as substrate.

Chain of Ubiquitin carboxyl-terminal hydrolase 7 (Q93009 whole entry): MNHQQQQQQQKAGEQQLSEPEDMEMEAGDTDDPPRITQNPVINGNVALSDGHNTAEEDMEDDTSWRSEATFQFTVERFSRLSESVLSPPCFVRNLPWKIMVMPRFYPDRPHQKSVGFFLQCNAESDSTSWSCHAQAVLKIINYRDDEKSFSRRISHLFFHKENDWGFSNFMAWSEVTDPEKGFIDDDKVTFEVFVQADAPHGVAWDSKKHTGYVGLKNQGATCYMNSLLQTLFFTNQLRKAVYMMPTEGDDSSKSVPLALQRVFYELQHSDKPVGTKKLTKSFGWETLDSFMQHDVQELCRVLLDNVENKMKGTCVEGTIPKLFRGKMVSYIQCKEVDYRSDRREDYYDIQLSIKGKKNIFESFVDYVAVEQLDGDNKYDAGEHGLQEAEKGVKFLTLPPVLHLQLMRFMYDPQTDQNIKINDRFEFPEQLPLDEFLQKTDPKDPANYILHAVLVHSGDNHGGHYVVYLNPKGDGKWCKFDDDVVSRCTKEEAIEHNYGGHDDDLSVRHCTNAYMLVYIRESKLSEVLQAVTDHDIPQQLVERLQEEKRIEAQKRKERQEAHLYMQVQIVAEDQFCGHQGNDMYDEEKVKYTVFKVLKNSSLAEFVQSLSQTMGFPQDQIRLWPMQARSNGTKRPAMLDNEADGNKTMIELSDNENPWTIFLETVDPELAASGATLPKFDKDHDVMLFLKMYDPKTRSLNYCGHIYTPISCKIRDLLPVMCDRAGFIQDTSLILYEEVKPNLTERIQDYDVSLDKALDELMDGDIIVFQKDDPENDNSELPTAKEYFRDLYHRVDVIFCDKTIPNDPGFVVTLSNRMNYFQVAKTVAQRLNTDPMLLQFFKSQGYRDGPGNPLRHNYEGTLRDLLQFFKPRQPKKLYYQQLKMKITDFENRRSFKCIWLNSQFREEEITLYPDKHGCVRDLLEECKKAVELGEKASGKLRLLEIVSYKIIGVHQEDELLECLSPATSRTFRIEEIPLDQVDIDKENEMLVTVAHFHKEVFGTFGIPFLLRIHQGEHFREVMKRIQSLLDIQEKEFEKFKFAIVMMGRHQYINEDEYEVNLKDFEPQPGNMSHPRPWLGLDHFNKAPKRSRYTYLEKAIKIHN

Consider `C[C@H](CC(=O)N1CCC(O)(Cn2cnc3cc(NC(=O)CCN4CCN(C)CC4)ccc3c2=O)CC1)c1ccccc1`, for which inhibition was half-maximal at 90 nM (IC50). This lies in the double-digit nanomolar range.
